Laboratory results as given in the supplement of paper PMC10307832.

Columns and labels:
Test in all cases: relative viability (nuclei count vs DMSO), 5 days (fraction); higher = more cells survive
[1] = compound: CCOC1=CC=CC=C1N=NC2=C(NN(C2=O)C3=NC(=CS3)C4=CC=CC=C4)C [BAM7] + CC(C)C[C@H](NC(=O)[C@H](Cc1ccccc1)NC(=O)c1cnccn1)B(O)O [Bortezomib] (partner 0.002 µM)
Summary of the method: (§1)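 Lung cancer cell lines, seeded in 1536-well plates, were treated the following day by pin tool with a single drug or with five library-drug doses (not always all listed) in √10 steps on top of a fixed anchor-drug dose. Cells were fixed and nuclei stained in one step after 5 days, and nuclei were counted. Relative viability is the nuclei count for treated wells divided by that for vehicle wells, reported as medians of duplicate plates.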

[2] = compound: CCOC1=CC=CC=C1N=NC2=C(NN(C2=O)C3=NC(=CS3)C4=CC=CC=C4)C [BAM7] + C[C@]1(O)C[C@@H](c2nc(-c3ccc4ccc(-c5ccccc5)nc4c3)c3c(N)nccn32)C1 [Linsitinib] (partner 1 µM)
Summary of the method: as §1

[3] = compound: CCn1c(-c2nonc2N)nc2c(C#CC(C)(C)O)ncc(OC[C@H]3CCCNC3)c21 + CC(=O)c1c(C)c2cnc(Nc3ccc(N4CCNCC4)cn3)nc2n(C2CCCC2)c1=O [Palbociclib] (partner 0.5 µM)
Summary of the method: as §1

[4] = compound: CCn1c(-c2nonc2N)nc2c(C#CC(C)(C)O)ncc(OC[C@H]3CCCNC3)c21 + Cc1nc(Nc2ncc(C(=O)Nc3c(C)cccc3Cl)s2)cc(N2CCN(CCO)CC2)n1 [Dasatinib] (partner 0.075 µM)
Summary of the method: as §1

Cell Line | relative viability ([1]; first compound 0.5 µM) | relative viability ([1]; first compound 5 µM) | relative viability ([1]; first compound 15.81 µM) | relative viability ([1]; first compound 50 µM) | relative viability ([2]; first compound 0.5 µM) | relative viability ([2]; first compound 5 µM) | relative viability ([2]; first compound 15.81 µM) | relative viability ([2]; first compound 50 µM) | relative viability ([3]; first compound 0.01 µM) | relative viability ([3]; first compound 0.03162 µM) | relative viability ([3]; first compound 0.1 µM) | relative viability ([3]; first compound 0.3162 µM) | relative viability ([3]; first compound 1 µM) | relative viability ([4]; first compound 0.01 µM) | relative viability ([4]; first compound 0.03162 µM) | relative viability ([4]; first compound 0.1 µM) | relative viability ([4]; first compound 0.3162 µM) | relative viability ([4]; first compound 1 µM)
NCI-H3122 | 1.06 | 1.13 | 1.04 | 1.05 | 0.969 | 1.08 | 1 | 1.02 | 0.177 | 0.18 | 0.176 | 0.175 | 0.219 | 0.68 | 0.859 | 0.857 | 0.852 | 0.637
PC-3 [JPC-3] | 0.824 | 0.751 | 0.782 | 0.585 | 0.905 | 0.966 | 0.868 | 0.835 | 0.529 |  | 0.556 | 0.557 | 0.531 | 0.932 | 0.967 | 1.02 | 0.986 | 0.902
PC-14 | 0.918 | 1.03 | 0.846 | 0.806 | 0.984 | 1.04 | 0.953 | 0.975 | 0.581 | 0.543 | 0.542 | 0.476 | 0.516 | 0.243 | 0.292 | 0.28 | 0.237 | 0.301
RERF-LC-KJ | 1.05 | 1.01 | 0.948 | 0.972 | 0.862 | 0.775 | 0.833 | 0.929 | 1.02 | 1.06 | 1.02 | 0.915 | 1.05 | 0.708 | 0.815 | 0.748 | 0.678 | 0.565
SK-LU-1 | 1.18 | 1.46 | 1.3 | 1.39 | 0.969 | 1.21 | 1.22 | 1.21 | 0.405 | 0.455 | 0.323 | 0.414 | 0.39 | 0.191 | 0.161 | 0.199 | 0.188 | 0.158
SW 1573 | 0.953 | 1.07 | 1.07 | 0.972 | 0.838 | 0.742 | 0.819 | 0.896 | 0.334 | 0.402 | 0.326 | 0.241 | 0.215 | 0.377 | 0.561 | 0.431 | 0.455 | 0.354
